Measured values taken from patent US20200216416A1, “QUINOLINE COMPOUNDS AS INHIBITORS OF TAM AND MET KINASES” (Array BioPharma Inc., priority 2019, published 2020).

What was measured:
[1] = target: T1, GST-tagged recombinant human TYRO3 kinase domain (Homo sapiens, UniProt Q06418); assay: TYRO3 Enzyme Assay (LanthaScreen Eu Kinase Binding); details: averaged IC50; TYRO3 5 nM; 60-minute incubation at 22° C.; TR-FRET
T1 construct: GST-tagged recombinant human TYRO3 kinase domain; purchased Carna PR7480A
T1 sequence (Q06418 518-790 limits assumed): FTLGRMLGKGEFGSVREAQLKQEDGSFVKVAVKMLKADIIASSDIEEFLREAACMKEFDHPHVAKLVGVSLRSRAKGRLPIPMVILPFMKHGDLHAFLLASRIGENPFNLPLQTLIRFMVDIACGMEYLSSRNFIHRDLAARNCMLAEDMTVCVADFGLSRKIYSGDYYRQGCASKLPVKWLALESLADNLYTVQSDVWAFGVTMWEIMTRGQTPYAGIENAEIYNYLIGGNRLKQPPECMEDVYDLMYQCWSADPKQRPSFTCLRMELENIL
In short: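 Competitive tracer-displacement TR-FRET: 5 nM kinase, 20 nM Alexa-Fluor Tracer 236 and 2 nM Eu-anti-GST with threefold-diluted compound in 25 mM HEPES pH 7.4, 10 mM MgCl2, 0.01% Triton X-100, 2% DMSO, 60 min at 22° C. Ratiometric percent of control fitted to a 4-parameter logistic; IC50 at 50 POC.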

[2] = target: T2, human MET kinase F1200I (Homo sapiens, UniProt P08581, F1200I); assay: c-Met Enzyme Assay, F1200I mutant; type: binding; details: averaged IC50; F1200I 2 nM; 60-minute incubation at 22° C.
T2 construct: GST-tagged recombinant human MET kinase domain; purchased Signal Chem
T2 sequence (P08581 1078-1345 F1200I limits assumed): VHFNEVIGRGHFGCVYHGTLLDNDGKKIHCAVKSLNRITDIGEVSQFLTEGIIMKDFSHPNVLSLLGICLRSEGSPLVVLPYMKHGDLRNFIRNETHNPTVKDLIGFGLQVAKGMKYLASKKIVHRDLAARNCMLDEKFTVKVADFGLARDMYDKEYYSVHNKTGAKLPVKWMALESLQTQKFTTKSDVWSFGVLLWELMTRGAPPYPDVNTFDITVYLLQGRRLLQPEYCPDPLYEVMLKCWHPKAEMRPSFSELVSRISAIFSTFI
In short: (§1)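 LanthaScreen Eu TR-FRET binding: GST-tagged recombinant MET kinase domain incubated with compound, 50 nM Alexa-Fluor Tracer 236 and 2 nM Eu-anti-GST in 25 mM HEPES pH 7.4, 10 mM MgCl2, 1 mM DTT, 2% DMSO, 60 min at 22 °C. Ratiometric emission gave percent of control; IC50 from 4-parameter fit at 50 POC.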

[3] = target: T3, human MET kinase L1195V (Homo sapiens, UniProt P08581, L1195V); assay: c-Met Enzyme Assay, L1195V mutant; type: binding; details: averaged IC50; L1195V 10 nM; 60-minute incubation at 22° C.
T3 construct: GST-tagged recombinant human MET kinase domain; purchased Signal Chem
T3 sequence (P08581 1078-1345 L1195V limits assumed): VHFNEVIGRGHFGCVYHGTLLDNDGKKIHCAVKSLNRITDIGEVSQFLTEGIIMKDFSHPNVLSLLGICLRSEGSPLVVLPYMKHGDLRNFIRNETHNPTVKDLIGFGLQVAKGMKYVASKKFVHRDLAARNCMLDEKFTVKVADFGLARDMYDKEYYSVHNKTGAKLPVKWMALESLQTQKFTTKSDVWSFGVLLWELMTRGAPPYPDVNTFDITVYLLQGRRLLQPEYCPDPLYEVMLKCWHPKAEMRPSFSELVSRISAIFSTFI
In short: as §1

[4] = target: T4, human MET kinase del Ex14 (Homo sapiens, UniProt P08581, DEL963-1009); assay: c-Met Enzyme Assay, del Ex14 mutant; type: binding; details: averaged IC50; del Ex14 5 nM; 60-minute incubation at 22° C.; read-out: Del14 IC50
T4 construct: GST-tagged recombinant human MET kinase domain; purchased Signal Chem
T4 sequence (P08581 with tags, fused parts or gaps DEL963-1009 limits assumed): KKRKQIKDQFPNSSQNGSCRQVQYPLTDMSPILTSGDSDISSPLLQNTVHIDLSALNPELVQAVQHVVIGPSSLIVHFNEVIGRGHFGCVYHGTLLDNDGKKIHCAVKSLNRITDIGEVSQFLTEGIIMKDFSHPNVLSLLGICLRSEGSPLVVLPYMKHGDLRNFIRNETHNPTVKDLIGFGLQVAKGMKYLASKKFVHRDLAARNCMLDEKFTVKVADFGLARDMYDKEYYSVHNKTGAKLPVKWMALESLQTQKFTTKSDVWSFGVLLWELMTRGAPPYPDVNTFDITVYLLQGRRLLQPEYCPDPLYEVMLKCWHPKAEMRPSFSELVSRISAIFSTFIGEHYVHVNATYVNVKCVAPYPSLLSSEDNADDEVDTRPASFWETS
In short: as §1

[5] = target: T5, MET (wt) GST-tagged recombinant human MET kinase domain (Homo sapiens, UniProt P08581); assay: c-Met Enzyme Assay, wild type (LanthaScreen Eu Kinase Binding); details: averaged IC50; MET (wt) 10 nM; 60-minute incubation at 22° C.; read-out: SigChem WT IC50
T5 construct: GST-tagged recombinant human MET kinase domain; purchased Signal Chem
T5 sequence (P08581 1078-1345 limits assumed): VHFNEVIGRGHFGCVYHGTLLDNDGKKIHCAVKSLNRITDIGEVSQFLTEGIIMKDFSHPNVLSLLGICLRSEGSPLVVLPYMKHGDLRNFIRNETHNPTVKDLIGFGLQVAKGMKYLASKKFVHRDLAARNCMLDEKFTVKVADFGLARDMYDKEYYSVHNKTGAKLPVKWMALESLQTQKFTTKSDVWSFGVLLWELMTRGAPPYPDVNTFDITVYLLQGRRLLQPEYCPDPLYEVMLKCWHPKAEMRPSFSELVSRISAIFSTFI
In short: as §1

IC50 [1] [nM] | IC50 [2] [nM] | IC50 [3] [nM] | IC50 [4] [nM] | IC50 [5] [nM] | SMILES
16 | 3.4 | 8.2 | 1.9 | 3.2 | COc1cc2nccc(Oc3ccc(NC(=O)c4cn(CCN(C)C)cc(-c5ccc(Cl)cc5)c4=O)nc3)c2cc1OC [Example 42]
11 | 2 | 14.2 | 2.5 | 1.4 | COc1cc2nccc(Oc3ccc(NC(=O)c4cn(CCN(C)C)cc(-c5ccc(F)c(F)c5)c4=O)nc3)c2cc1OC [Example 43, 5-(3,4-difluorophenyl)-N-(5-((6,7-dimethoxyquinolin-4-yl)oxy)pyridin-2-yl)-1-]
30 | 16.4 | 23.2 | 12.2 | 10 | COc1cc2nccc(Oc3ccc(NC(=O)c4cn(CCC(C)C)cc(-c5ccc(Cl)cc5)c4=O)nc3)c2cc1OC [Example 37]
